Results from patent publication US10233173B2, “Substituted 1,2,3-triazoles as NR2B-selective NMDA modulators” (JANSSEN PHARMACEUTICA NV, priority 2016, dated 2019).

Molecular target: human GluN1/GluN2B NMDA receptors (Homo sapiens, UniProt Q05586+Q13224)
Assay: Cell-based calcium flux (FLIPR) assay on cloned human NR1/NR2B ion channels expressed in mammalian cells
Conditions: standard assay; human GluN1/GluN2B, calcium flux (FLIPR), glutamate ~EC80
Procedure: Effects of Test Articles on Cloned Human NR1/NR2B Ion Channels Expressed in Mammalian Cells
NMDA receptors are ion channels that are highly permeable to Ca^2+ ions, rendering it possible to monitor NMDA receptor function using cell-based calcium flux assay. In this assay, co-agonists glutamate and glycine are added to cells heterologously expressing human GluN1/GluN2B NMDA receptors to initiate cellular Ca^2+ influx. The time course of the changes in intracellular calcium is measured using a fluorescent dye and a FLIPR (Fluorometric Imaging Plate Reader) device.
Twenty four hours before measurements, the expression of the NMDA receptors in the stable cell line is induced with Tet-On inducible system in the presence of a non-selective NMDA receptor blocker. On the day of the experiment, cell culture media is carefully washed and the cells are loaded with Calcium 5 Dye Kit (Molecular Devices) in dye loading buffer containing 149 mM NaCl, 4 mM KCl, 2 mM CaCl2, and 1.5 mM MgCl2, 10 mM HEPES and 5 mM D-glucose; pH 7.4. After 1 h incubation at the room temperature, the dye is washed away with the assay buffer (149 mM NaCl (standard assay) or 150 mM (HTS assay), 4 mM KCl (standard assay) or 3 mM (HTS assay), 2 mM CaCl2, 0.01 mM EDTA, 10 mM HEPES and 5 mM D-glucose; pH 7.4) In the FLIPR TETRA reader, various concentrations of the test compounds are added to the cells for 5 min while fluorescence is monitored to detect potential agonist activity. Next, co-agonists, glutamate and glycine are added for another 5 minutes. The concentration of glutamate corresponding to ˜EC80 (standard assay) or EC40 (HTS assay) is used to maximize the assay's signal window or the ability to detect NMDA receptor antagonists and negative allosteric modulators, respectively. A saturating concentration (10 μM) of glycine is also present in the assay. […] The fluorescent signal in the presence of test compounds is quantified and normalized to the signal defined by the appropriate control wells.

human GluN1/GluN2B NMDA receptors, sequence (Q13224 27-1484, other chains not shown): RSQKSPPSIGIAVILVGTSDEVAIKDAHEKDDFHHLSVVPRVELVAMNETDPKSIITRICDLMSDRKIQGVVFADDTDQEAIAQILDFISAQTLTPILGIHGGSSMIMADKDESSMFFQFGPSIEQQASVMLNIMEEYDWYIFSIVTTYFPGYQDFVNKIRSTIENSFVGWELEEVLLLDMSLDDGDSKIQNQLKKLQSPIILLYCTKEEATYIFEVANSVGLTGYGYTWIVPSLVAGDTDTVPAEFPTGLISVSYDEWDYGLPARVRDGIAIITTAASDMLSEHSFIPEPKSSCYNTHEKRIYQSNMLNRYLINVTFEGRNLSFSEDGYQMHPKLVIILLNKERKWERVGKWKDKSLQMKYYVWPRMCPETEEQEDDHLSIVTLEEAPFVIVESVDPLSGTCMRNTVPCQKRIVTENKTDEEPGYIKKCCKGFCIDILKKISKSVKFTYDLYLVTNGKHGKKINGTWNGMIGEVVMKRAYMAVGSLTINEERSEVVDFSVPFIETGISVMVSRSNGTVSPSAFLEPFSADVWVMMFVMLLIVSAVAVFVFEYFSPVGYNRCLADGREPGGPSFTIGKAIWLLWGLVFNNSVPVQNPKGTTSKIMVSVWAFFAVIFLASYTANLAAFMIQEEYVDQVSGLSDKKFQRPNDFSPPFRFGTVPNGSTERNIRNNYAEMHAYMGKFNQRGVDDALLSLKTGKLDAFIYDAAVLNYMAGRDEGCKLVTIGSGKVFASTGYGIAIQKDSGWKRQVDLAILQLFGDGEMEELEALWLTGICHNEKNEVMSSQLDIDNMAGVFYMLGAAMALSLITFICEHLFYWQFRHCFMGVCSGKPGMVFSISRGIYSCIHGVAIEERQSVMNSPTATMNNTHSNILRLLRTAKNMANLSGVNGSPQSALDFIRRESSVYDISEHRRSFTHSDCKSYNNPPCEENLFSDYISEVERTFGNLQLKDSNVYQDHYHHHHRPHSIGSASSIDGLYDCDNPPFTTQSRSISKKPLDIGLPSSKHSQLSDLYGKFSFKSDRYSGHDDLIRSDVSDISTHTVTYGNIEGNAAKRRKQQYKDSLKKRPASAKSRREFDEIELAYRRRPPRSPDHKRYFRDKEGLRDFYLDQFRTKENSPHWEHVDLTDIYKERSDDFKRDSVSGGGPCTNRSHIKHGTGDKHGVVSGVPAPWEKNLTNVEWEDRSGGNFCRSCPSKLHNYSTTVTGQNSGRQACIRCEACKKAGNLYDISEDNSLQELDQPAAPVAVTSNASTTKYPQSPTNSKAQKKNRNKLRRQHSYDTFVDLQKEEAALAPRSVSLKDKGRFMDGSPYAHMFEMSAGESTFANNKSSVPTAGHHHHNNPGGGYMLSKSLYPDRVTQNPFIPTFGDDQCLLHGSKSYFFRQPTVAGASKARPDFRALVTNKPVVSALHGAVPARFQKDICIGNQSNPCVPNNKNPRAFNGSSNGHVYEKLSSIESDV

Question: How did the IC50 turn out when `Cc1cnc(OCc2cn(-c3ccc(F)c(OC(F)F)c3)nn2)nc1` [Example 63, 2-[[1-[3-(Difluoromethoxy)-4-fluoro-phenyl]triazol-4-yl]methoxy]-5-methyl-pyrimidine] was run?
Answer: 0.003 µM

Question: With `Cc1ccnc(OCc2cn(-c3ccc(F)c(OC(F)F)c3)nn2)n1` [Example 64, 2-[[1-[3-(Difluoromethoxy)-4-fluoro-phenyl]triazol-4-yl]methoxy]-4-methyl-pyrimidine] as the molecule, how does the IC50 read?
Answer: 0.007 µM

Question: With `Fc1ccc(-n2cc(COc3ccc(C(F)(F)F)cn3)nn2)cc1C(F)F` [Example 65, 2-[[1-[3-(Difluoromethyl)-4-fluoro-phenyl]triazol-4-yl]methoxy]-5-(trifluoromethyl)pyridine] as the molecule, how does the IC50 read?
Answer: 0.056 µM

Question: `Fc1cnc(OCc2cn(-c3ccc(Cl)c(C(F)F)c3)nn2)nc1` [Example 66, 2-[[1-[4-Chloro-3-(difluoromethyl)phenyl]triazol-4-yl]methoxy]-5-fluoro-pyrimidine] was tested. Which IC50 did it give?
Answer: 0.052 µM

Question: With `CCc1cnc(OCc2cn(-c3ccc(F)c(C(C)(F)F)c3)nn2)nc1` [Example 67, 2-[[1-[3-(1,1-Difluoroethyl)-4-fluoro-phenyl]triazol-4-yl]methoxy]-5-ethyl-pyrimidine] as the molecule, how does the IC50 read?
Answer: 0.015 µM

Question: Which IC50 does the source give for `COc1cnc(OCc2cn(-c3ccc(F)c(C(C)(F)F)c3)nn2)nc1` [Example 68, 2-[[1-[3-(1,1-Difluoroethyl)-4-fluoro-phenyl]triazol-4-yl]methoxy]-5-methoxy-pyrimidine] here?
Answer: 0.007 µM

Question: How did the IC50 turn out when `CC(F)(F)c1cc(-n2cc(COc3ncc(Cl)cn3)nn2)ccc1F` [Example 69, 5-Chloro-2-[[1-[3-(1,1-difluoroethyl)-4-fluoro-phenyl]triazol-4-yl]methoxy]pyrimidine] was run?
Answer: 0.009 µM

Question: With `CC(C)c1cnc(OCc2cn(-c3ccc(F)c(C(C)(F)F)c3)nn2)nc1` [Example 70, 2-[[1-[3-(1,1-Difluoroethyl)-4-fluoro-phenyl]triazol-4-yl]methoxy]-5-isopropyl-pyrimidine] as the molecule, how does the IC50 read?
Answer: 0.044 µM

Question: With `CC(F)(F)c1cc(-n2cc(COc3ncc(C(F)(F)F)cn3)nn2)ccc1F` [Example 71, 2-[[1-[3-(1,1-Difluoroethyl)-4-fluoro-phenyl]triazol-4-yl]methoxy]-5-(trifluoromethyl)pyrimidine] as the molecule, how does the IC50 read?
Answer: 0.04 µM

Question: How did the IC50 turn out when `CCc1cnc(OCc2cn(-c3ccc(F)c(C(F)(F)F)c3)nn2)nc1` [Example 72, 5-Ethyl-2-[[1-[4-fluoro-3-(trifluoromethyl)phenyl]triazol-4-yl]methoxy]pyrimidine] was run?
Answer: 0.01 µM

Question: Which IC50 does the source give for `COc1cnc(OCc2cn(-c3ccc(F)c(C(F)(F)F)c3)nn2)nc1` [Example 73, 2-[[1-[4-Fluoro-3-(trifluoromethyl)phenyl]triazol-4-yl]methoxy]-5-methoxy-pyrimidine] here?
Answer: 0.008 µM

Question: Which IC50 does the source give for `Fc1ccc(-n2cc(COc3ncc(Cl)cn3)nn2)cc1C(F)(F)F` [Example 74, 5-Chloro-2-[[1-[4-fluoro-3-(trifluoromethyl)phenyl]triazol-4-yl]methoxy]pyrimidine] here?
Answer: 0.016 µM

Question: With `CC(C)c1cnc(OCc2cn(-c3ccc(F)c(C(F)(F)F)c3)nn2)nc1` [Example 75, 2-[[1-[4-Fluoro-3-(trifluoromethyl)phenyl]triazol-4-yl]methoxy]-5-isopropyl-pyrimidine] as the molecule, how does the IC50 read?
Answer: 0.026 µM

Question: With `Fc1ccc(-n2cc(COc3ncc(C(F)(F)F)cn3)nn2)cc1C(F)(F)F` [Example 76, 2-[[1-[4-Fluoro-3-(trifluoromethyl)phenyl]triazol-4-yl]methoxy]-5-(trifluoromethyl)pyrimidine] as the molecule, how does the IC50 read?
Answer: 0.035 µM

Question: For `Cc1cnc(OCc2cn(-c3ccc(F)c(C(C)(F)F)c3)nn2)nc1` [Example 77, 2-[[1-[3-(1,1-Difluoroethyl)-4-fluoro-phenyl]triazol-4-yl]methoxy]-5-methyl-pyrimidine], which IC50 is on record?
Answer: 0.004 µM

Question: For `CC(F)(F)c1cc(-n2cc(COc3ncccn3)nn2)ccc1F` [Example 78, 2-[[1-[3-(1,1-Difluoroethyl)-4-fluoro-phenyl]triazol-4-yl]methoxy]pyrimidine], which IC50 is on record?
Answer: 0.06 µM

Question: `Cc1ccnc(OCc2cn(-c3ccc(F)c(C(C)(F)F)c3)nn2)n1` [Example 79, 2-[[1-[3-(1,1-Difluoroethyl)-4-fluoro-phenyl]triazol-4-yl]methoxy]-4-methyl-pyrimidine] was tested. Which IC50 did it give?
Answer: 0.007 µM

Question: For `CC(F)(F)c1cc(-n2cc(COc3ncc(F)cn3)nn2)ccc1F` [Example 80, 2-[[1-[3-(1,1-Difluoroethyl)-4-fluoro-phenyl]triazol-4-yl]methoxy]-5-fluoro-pyrimidine], which IC50 is on record?
Answer: 0.032 µM

Question: With `Cc1cnc(OCc2cn(-c3ccc(F)c(C(F)(F)F)c3)nn2)nc1` [Example 81, 2-[[1-[4-Fluoro-3-(trifluoromethyl)phenyl]triazol-4-yl]methoxy]-5-methyl-pyrimidine] as the molecule, how does the IC50 read?
Answer: 0.003 µM

Question: How did the IC50 turn out when `Fc1ccc(-n2cc(COc3ncccn3)nn2)cc1C(F)(F)F` [Example 82, 2-[[1-[4-Fluoro-3-(trifluoromethyl)phenyl]triazol-4-yl]methoxy]pyrimidine] was run?
Answer: 0.126 µM

Question: With `Cc1ccnc(OCc2cn(-c3ccc(F)c(C(F)(F)F)c3)nn2)n1` [Example 83, 2-[[1-[4-Fluoro-3-(trifluoromethyl)phenyl]triazol-4-yl]methoxy]-4-methyl-pyrimidine] as the molecule, how does the IC50 read?
Answer: 0.02 µM

Question: How did the IC50 turn out when `Fc1cnc(OCc2cn(-c3ccc(F)c(C(F)(F)F)c3)nn2)nc1` [Example 84, 5-Fuoro-2-[[1-[4-fluoro-3-(trifluoromethyl)phenyl]triazol-4-yl]methoxy]pyrimidine] was run?
Answer: 0.072 µM

Question: With `Cc1cnc(OCc2cn(-c3ccc(F)c(Br)c3)nn2)nc1C` [Example 85, 2-[[1-(3-Bromo-4-fluoro-phenyl)triazol-4-yl]methoxy]-4,5-dimethyl-pyrimidine] as the molecule, how does the IC50 read?
Answer: 0.003 µM

Question: Which IC50 does the source give for `Cc1cnc(OCc2cn(-c3ccc(Cl)c(C(F)F)c3)nn2)nc1C` [Example 86, 2-[[1-[4-Chloro-3-(difluoromethyl)phenyl]triazol-4-yl]methoxy]-4,5-dimethyl-pyrimidine] here?
Answer: 0.004 µM

Question: With `COc1cnc(OCc2cn(-c3ccc(Cl)c(OC)c3)nn2)nc1` [Example 87] as the molecule, how does the IC50 read?
Answer: 0.012 µM

Question: `COc1cc(-n2cc(COc3ncc(C)cn3)nn2)ccc1Cl` [Example 88, 2-[[1-(4-Chloro-3-methoxy-phenyl)triazol-4-yl]methoxy]-5-methyl-pyrimidine] was tested. Which IC50 did it give?
Answer: 0.019 µM

Question: `Cc1cnc(OCc2cn(-c3cccc(C(F)F)c3)nn2)nc1` [Example 89, 2-[[1-[3-(Difluoromethyl)phenyl]triazol-4-yl]methoxy]-5-methyl-pyrimidine] was tested. Which IC50 did it give?
Answer: 0.011 µM

Question: With `COc1cnc(OCc2cn(-c3cccc(C(F)F)c3)nn2)nc1` [Example 90, 2-[[1-[3-(Difluoromethyl)phenyl]triazol-4-yl]methoxy]-5-methoxy-pyrimidine] as the molecule, how does the IC50 read?
Answer: 0.012 µM

Question: `CCc1cnc(OCc2cn(-c3cccc(C(F)F)c3)nn2)nc1` [Example 91, 2-[[1-[3-(Difluoromethyl)phenyl]triazol-4-yl]methoxy]-5-ethyl-pyrimidine] was tested. Which IC50 did it give?
Answer: 0.004 µM

Question: For `FC(F)c1cccc(-n2cc(COc3ncc(Cl)cn3)nn2)c1` [Example 92, 5-Chloro-2-[[1-[3-(difluoromethyl)phenyl]triazol-4-yl]methoxy]pyrimidine], which IC50 is on record?
Answer: 0.019 µM

Question: How did the IC50 turn out when `FC(F)c1cccc(-n2cc(COc3ncccn3)nn2)c1` [Example 93, 2-[[1-[3-(Difluoromethyl)phenyl]triazol-4-yl]methoxy]pyrimidine] was run?
Answer: 0.493 µM

Question: Which IC50 does the source give for `Cc1cnc(OCc2cn(-c3ccc(Br)c(C)n3)nn2)nc1` [Example 94, 2-[[1-(5-Bromo-6-methyl-2-pyridyl)triazol-4-yl]methoxy]-5-methyl-pyrimidine] here?
Answer: 2.91 µM

Question: Which IC50 does the source give for `Fc1cnc(OCc2cn(-c3ccc(Cl)c(OC(F)F)c3)nn2)nc1` [Example 95, 2-[[1-[4-Chloro-3-(difluoromethoxy)phenyl]triazol-4-yl]methoxy]-5-fluoro-pyrimidine] here?
Answer: 0.023 µM

Question: With `FC(F)Oc1cc(-n2cc(COc3ncc(C(F)F)cn3)nn2)ccc1Cl` [Example 96, 2-[[1-[4-Chloro-3-(difluoromethoxy)phenyl]triazol-4-yl]methoxy]-5-(difluoromethyl)pyrimidine] as the molecule, how does the IC50 read?
Answer: 0.008 µM

Question: With `FC(F)Oc1cc(-n2cc(CNc3ncco3)nn2)ccc1Cl` [Example 97, N-[[1-[4-Chloro-3-(difluoromethoxy)phenyl]triazol-4-yl]methyl]oxazol-2-amine] as the molecule, how does the IC50 read?
Answer: 0.106 µM

Question: With `FC(F)Oc1cc(-n2cc(CNc3ncccn3)nn2)ccc1Cl` [Example 98, N-[[1-[4-Chloro-3-(difluoromethoxy)phenyl]triazol-4-yl]methyl]pyrimidin-2-amine] as the molecule, how does the IC50 read?
Answer: 0.331 µM

Question: `Cn1cc(NCc2cn(-c3ccc(F)c(C(F)F)c3)nn2)cn1` [Example 99, N-[[1-[3-(Difluoromethyl)-4-fluoro-phenyl]triazol-4-yl]methyl]-1-methyl-pyrazol-4-amine] was tested. Which IC50 did it give?
Answer: 5.05 µM

Question: Which IC50 does the source give for `Cn1ccc(NCc2cn(-c3ccc(F)c(C(F)F)c3)nn2)n1` [Example 100, N-[[1-[3-(Difluoromethyl)-4-fluoro-phenyl]triazol-4-yl]methyl]-1-methyl-pyrazol-3-amine] here?
Answer: 0.894 µM
